Reference: patent publication US11104648B2, “Pyrazole derivative” (Zhejiang Research Institute of Chemical Industry Co., Ltd., priority 2018, dated 2021)
Where two headings read alike, the source gives them in different places.

Tests used:
Type in all cases: in vivo
[1] = test system: adult Tetranychus cinnabarinus; experiment: Activity assay of adult Tetranychus cinnabarinus (whole-plant spray on bean seedlings); details: 48 h; for pest or weed control at 1.25 µg/mL: concentration 1.25 mg/L
Outline: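 Whole plants sprayed after adult mite inoculation and initial census, using compound dissolved in DMF and made up with 1‰ Tween 80 water (DMF not above 10%). Mortality derived from survivor counts at 48 h after treatment. Each treatment run in triplicate.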

[2] = test system: Tetranychus cinnabarinus Nymphs; experiment: Activity assay of Tetranychus cinnabarinus nymphs (spray on broad bean leaves)
Outline: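 Mortality, judged as no response to gentle touch, was scored 48 h after spraying Tetranychus cinnabarinus nymphs on broad bean leaves (eggs from females removed after 24 h). Test solutions: DMF-dissolved compound, ≤10% DMF, in 1‰ Tween 80; 26±2° C., 70%–80% RH, 16 h light; triplicate, blank control.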

[3] = test system: Eggs of Tetranychus Cinnabarinus; experiment: Activity assay of eggs of Tetranychus cinnabarinus (spray method, ovicidal); details: Tetranychus cinnabarinus; for pest or weed control at 2 µg/mL: concentration 2 mg/L
Outline: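 Ovicidal spray test: compound dissolved in DMF, diluted with 1‰ Tween 80 (DMF ≤10%), sprayed on eggs laid during 24 h by females on broad bean leaves. Culture at 26±2° C, 70–80% RH, 16 h photoperiod; non-hatched eggs scored as dead when blank control hatched; three repeats.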

[4] = read-out: adult mite-killing activity
[5] = concentration 2.5 mg/L, read-out: adult mite-killing activity
[6] = 48 h, concentration 2 mg/L, read-out: nymph-killing activity
[7] = 48 h, concentration 2.5 mg/L, read-out: nymph-killing activity
[8] = spray, read-out: ovicidal activity
[9] = concentration 5 mg/L, spray, non-incubated eggs counted as dead, read-out: ovicidal activity

Compound | pest or weed control at 2.5 µg/mL [1, 5] | pest or weed control at 2.5 µg/mL [2, 7] | pest or weed control at 5 µg/mL [3, 9] | other results
CCC(=O)OCO/C(=C(/C#N)c1ccc(C(C)(C)C)cc1)c1c(Cl)c(C)nn1CC [Compound 302] | ≥ 90% | ≥ 95% | ≥ 90% | pest or weed control at 1.25 µg/mL ([1]; adult mites, parallel determination, read-out: Death rate (%)): 96%; pest or weed control at 1.25 µg/mL [1, 4]: ≥ 90%; pest or weed control at 2 µg/mL [2, 6]: ≥ 90%; pest or weed control at 0.5 µg/mL ([2]; 48 h, nymphs, concentration 0.5 mg/L, parallel determination, read-out: Death rate (%)): 96%; pest or weed control at 2 µg/mL [3, 8]: ≥ 90%; pest or weed control at 2 µg/mL ([3]; eggs, parallel determination, read-out: Death rate (%)): 97%
CCCC(=O)OCO/C(=C(/C#N)c1ccc(C(C)(C)C)cc1)c1c(Cl)c(C)nn1CC [Compound 303] | ≥ 90% | ≥ 95% | ≥ 90% | –
CCn1nc(C)c(Cl)c1/C(OCOC(=O)C(C)C)=C(\C#N)c1ccc(C(C)(C)C)cc1 [Compound 304] | ≥ 90% | ≥ 95% | ≥ 90% | –
CCn1nc(C)c(Cl)c1/C(OCOC(=O)C(C)(C)C)=C(\C#N)c1ccc(C(C)(C)C)cc1 [Compound 305] | ≥ 90% | ≥ 95% | ≥ 90% | pest or weed control at 1.25 µg/mL [1, 4]: ≥ 90%; pest or weed control at 2 µg/mL [2, 6]: ≥ 90%; pest or weed control at 2 µg/mL [3, 8]: ≥ 90%
CCCCC(=O)OCO/C(=C(/C#N)c1ccc(C(C)(C)C)cc1)c1c(Cl)c(C)nn1CC [Compound 306] | ≥ 90% | ≥ 95% | ≥ 90% | –
CCn1nc(C)c(Cl)c1/C(OCOC(=O)CC(C)C)=C(\C#N)c1ccc(C(C)(C)C)cc1 [Compound 307] | ≥ 90% | ≥ 95% | ≥ 90% | –
CCn1nc(C)c(Cl)c1/C(OCOC(=O)COC)=C(\C#N)c1ccc(C(C)(C)C)cc1 [Compound 308] | ≥ 90% | ≥ 95% | ≥ 90% | –
CCn1nc(C)c(Cl)c1/C(OCOC(=O)C1CC1)=C(\C#N)c1ccc(C(C)(C)C)cc1 [Compound 309] | ≥ 90% | ≥ 95% | ≥ 90% | pest or weed control at 1.25 µg/mL [1, 4]: ≥ 90%; pest or weed control at 2 µg/mL [2, 6]: ≥ 90%; pest or weed control at 2 µg/mL [3, 8]: ≥ 90%
CCn1nc(C)c(Cl)c1/C(OCOC(=O)CSC)=C(\C#N)c1ccc(C(C)(C)C)cc1 [Compound 310] | ≥ 90% | ≥ 95% | ≥ 90% | –
CCn1nc(C)c(Cl)c1/C(OCOC(=O)C1CCCCC1)=C(\C#N)c1ccc(C(C)(C)C)cc1 [Compound 311] | ≥ 90% | ≥ 95% | ≥ 90% | –
CCn1nc(C)c(Cl)c1/C(OCOC(=O)CF)=C(\C#N)c1ccc(C(C)(C)C)cc1 [Compound 312] | – | – | – | pest or weed control at 2.5 µg/mL [1, 4]: ≥ 90%; pest or weed control at 2.5 µg/mL ([2]; 48 h, read-out: nymph-killing activity): ≥ 95%; pest or weed control at 5 µg/mL ([3]; read-out: ovicidal activity): ≥ 90%
CCn1nc(C)c(Cl)c1/C(OCOC(=O)C(F)(F)F)=C(\C#N)c1ccc(C(C)(C)C)cc1 [Compound 313] | ≥ 90% | ≥ 95% | ≥ 90% | –
CCn1nc(C)c(Cl)c1/C(OCOC(=O)c1ccccc1)=C(\C#N)c1ccc(C(C)(C)C)cc1 [Compound 314] | ≥ 90% | ≥ 95% | ≥ 90% | –
CCn1nc(C)c(Cl)c1/C(OCOC(=O)Cc1ccccc1)=C(\C#N)c1ccc(C(C)(C)C)cc1 [Compound 315] | ≥ 90% | – | ≥ 90% | pest or weed control at 2.5 µg/mL ([2]; concentration 2.5 mg/L, 48 h, read-out: nymph-killing activity): ≥ 95%
CCn1nc(C)c(Cl)c1/C(OCOC(=O)C(C)(C)CC)=C(\C#N)c1ccc(C(C)(C)C)cc1 [Compound 316] | ≥ 90% | ≥ 95% | ≥ 90% | –
C=CC(=O)OCO/C(=C(/C#N)c1ccc(C(C)(C)C)cc1)c1c(Cl)c(C)nn1CC [Compound 317] | ≥ 90% | ≥ 95% | ≥ 90% | –
CCn1nc(C)c(Cl)c1/C(OC(C)OC(C)=O)=C(\C#N)c1ccc(C(C)(C)C)cc1 (stereo not drawn) [Compound 326] | ≥ 90% | ≥ 95% | ≥ 90% | pest or weed control at 1.25 µg/mL [1, 4]: ≥ 90%; pest or weed control at 2 µg/mL [2, 6]: ≥ 90%; pest or weed control at 2 µg/mL [3, 8]: ≥ 90%
CCC(=O)OC(C)O/C(=C(/C#N)c1ccc(C(C)(C)C)cc1)c1c(Cl)c(C)nn1CC (stereo not drawn) [Compound 327] | ≥ 90% | ≥ 95% | ≥ 90% | pest or weed control at 1.25 µg/mL [1, 4]: ≥ 90%; pest or weed control at 2 µg/mL [2, 6]: ≥ 90%; pest or weed control at 2 µg/mL [3, 8]: ≥ 90%
